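1) Cells in 96-well plates. 2) Compound, 48 h, 5 concentrations. 3) Linear interpolation between surrounding doses. 4) Unreached endpoint = highest concentration. Here, GI50 denotes the concentration required for 50% inhibition of growth.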 The source made the active and inactive calls. Cut-off read from the data, not from the text of the source: active = GI50 up to about 1.1 µM and inactive = higher.
Tests used:
Test in all cases: NCI anticancer screen, dose series, 48 h
HCT-15 = tested on: HCT-15
NCI-H522 = tested on: NCI-H522
SK-MEL-2 = tested on: SK-MEL-2
UACC-257 = tested on: UACC-257
HOP-62 = tested on: HOP-62
SR = tested on: SR
IGROV-1 = tested on: IGROV-1
SF-268 = tested on: SF-268
SN12C = tested on: SN12C
OVCAR-5 = tested on: OVCAR-5
HCT-116 = tested on: HCT-116
DU-145 = tested on: DU-145
EKVX = tested on: EKVX
CCRF-CEM = tested on: CCRF-CEM
A549 = tested on: A549
OVCAR-3 = tested on: OVCAR-3
T47D = tested on: T47D
MCF7 = tested on: MCF7
OVCAR-8 = tested on: OVCAR-8
MDA-MB-231 = tested on: MDA-MB-231

Row | Compound | GI50 (HCT-15) | GI50 (NCI-H522) | GI50 (SK-MEL-2) | GI50 (UACC-257) | GI50 (HOP-62) | GI50 (SR) | GI50 (IGROV-1) | GI50 (SF-268) | GI50 (SN12C) | GI50 (OVCAR-5) | GI50 (HCT-116) | GI50 (DU-145) | GI50 (EKVX) | GI50 (CCRF-CEM) | GI50 (A549) | GI50 (OVCAR-3) | GI50 (T47D) | GI50 (MCF7) | GI50 (OVCAR-8) | GI50 (MDA-MB-231)
1 | COc1ccc2c(C)cc(N/N=C/c3ccc(OC)c4ccccc34)nc2c1 | 10.1 µM | 12 µM (inactive) | 19.2 µM (inactive) | 19.3 µM (inactive) | 18.2 µM (inactive) | 4.17 µM (inactive) | 14.9 µM (inactive) | 15.9 µM (inactive) | 2.13 µM (inactive) | 14 µM (inactive) | 5.35 µM (inactive) | 4.36 µM (inactive) | 17.7 µM (inactive) | 1.93 µM (inactive) | 18.6 µM (inactive) | 2.96 µM (inactive) | 5.51 µM (inactive) | 19.4 µM (inactive) | 18.5 µM (inactive) | 4.91 µM (inactive)
2 | CN(C)CC1CCCCCCCCCC(CN(C)C)C1=O (stereo not given) | > 22.3 µM | 2.7 µM (inactive) | > 42.9 µM (inactive) | 23.1 µM (inactive) | > 44 µM (inactive) | 17.6 µM (inactive) | > 39.9 µM (inactive) | > 34.3 µM (inactive) | > 25.4 µM (inactive) | > 49.1 µM (inactive) | > 26.7 µM (inactive) | 12.9 µM (inactive) | > 39.9 µM (inactive) | 12 µM (inactive) | > 34.8 µM (inactive) | > 20.3 µM (inactive) | 7.06 µM (inactive) | 5.07 µM (inactive) | > 32.3 µM (inactive) | 17.3 µM (inactive)
3 | CC(=O)Oc1c(C)c2c(c3ccccc13)OC(C)(C)C2 | 17 µM | 18.4 µM (inactive) | 18 µM (inactive) | 12.2 µM (inactive) | 20.1 µM (inactive) | 17.7 µM (inactive) | 17.2 µM (inactive) | 15.5 µM (inactive) | 18.6 µM (inactive) | 19.5 µM (inactive) | 18 µM (inactive) | 17.3 µM (inactive) | 19.8 µM (inactive) | 24.7 µM (inactive) | 18.1 µM (inactive) | 22.5 µM (inactive) | 20.3 µM (inactive) | 17.5 µM (inactive) | 16.8 µM (inactive) | 23.9 µM (inactive)
4 | C=CCOC(=O)c1c(C)[n+]([O-])c2cc(Cl)c(Cl)cc2[n+]1[O-] | 13.5 µM | 12.4 µM (inactive) | 13.6 µM (inactive) | 18.7 µM (inactive) | 25.5 µM (inactive) | 4.54 µM (inactive) | 4.62 µM (inactive) | 14.7 µM (inactive) | 24.3 µM (inactive) | 30.4 µM (inactive) | 17.8 µM (inactive) | 29.6 µM (inactive) | 18.8 µM (inactive) | 17.3 µM (inactive) | 23 µM (inactive) | 20.1 µM (inactive) | 18.9 µM (inactive) | 20.5 µM (inactive) | 19.4 µM (inactive) | 24 µM (inactive)
5 | COc1cc(/C=C/C(=O)OCC23CC[C@@]4(C(=O)O)CCC(C)[C@H](C)C4C2=CCC2[C@@]4(C)CC[C@H](O)C(C)(C)C4CC[C@]23C)ccc1O (stereo not given in full) | 21.6 µM | 3.98 µM (inactive) | 22.5 µM (inactive) | 17.7 µM (inactive) | 13.4 µM (inactive) | 19.4 µM (inactive) | 14.5 µM (inactive) | 4.66 µM (inactive) | 8.09 µM (inactive) | 21.7 µM (inactive) | 17.5 µM (inactive) | 10.2 µM (inactive) | 15.5 µM (inactive) | 4.59 µM (inactive) | 7.76 µM (inactive) | 3.88 µM (inactive) | 48.5 µM (inactive) | 10.7 µM (inactive) | 15.9 µM (inactive) | 46.3 µM (inactive)
6 | Cc1ccnc2nc(-c3ccc(F)cc3)cc(O)c12 | 5.08 µM | 9.04 µM (inactive) | 57.3 µM (inactive) | > 92 µM (inactive) | 68.7 µM (inactive) | 3.82 µM (inactive) | 26.4 µM (inactive) | 74.6 µM (inactive) | > 100 µM (inactive) | > 100 µM (inactive) | 16.9 µM (inactive) | > 69.5 µM (inactive) | 79.6 µM (inactive) | 75.9 µM (inactive) | 54.2 µM (inactive) | 67.6 µM (inactive) | > 72.6 µM (inactive) | 24.5 µM (inactive) | > 100 µM (inactive) | > 80.7 µM (inactive)
7 | N#C[BH2-][n+]1cn(C2CC(OP(=O)(O)OCC3OC(n4ccc(N)nc4=O)CC3O)C(CO)O2)c2nc(N)[nH]c(=O)c21 (stereo not given) | > 100 µM | > 100 µM (inactive) | > 100 µM (inactive) | > 100 µM (inactive) | > 100 µM (inactive) | > 100 µM (inactive) | > 100 µM (inactive) | > 100 µM (inactive) | > 100 µM (inactive) | > 100 µM (inactive) | > 100 µM (inactive) | > 100 µM (inactive) | > 100 µM (inactive) | > 100 µM (inactive) | > 100 µM (inactive) | > 100 µM (inactive) | > 100 µM (inactive) | > 100 µM (inactive) | > 100 µM (inactive) | > 100 µM (inactive)
8 | C/C(=N/NC(=S)Nc1ccccc1C)c1ccccn1 | 0.0228 µM | 0.583 µM (active) | 2.65 µM (inactive) | < 0.0208 µM (active) | 0.0299 µM (active) | 0.0229 µM (active) | < 0.0182 µM (active) | 0.14 µM (active) | 0.269 µM (active) | 0.0843 µM (active) | < 0.0152 µM (active) | 1.63 µM (inactive) | 0.167 µM (active) | 0.0206 µM (active) | 0.0855 µM (active) | 0.0144 µM (active) | < 0.0475 µM (active) | 0.0164 µM (active) | 0.107 µM (active) | < 0.0216 µM (active)
9 | COc1ccc2[nH]c3c(C)c4c(c(C)c3c2c1)CN(C)C=C4 | 23.4 µM | 1.2 µM (inactive) | 2.62 µM (inactive) | 2.68 µM (inactive) | 0.679 µM (active) | 0.526 µM (active) | 1.82 µM (inactive) | 0.175 µM (active) | 0.164 µM (active) | 7.57 µM (inactive) | 2.61 µM (inactive) | 5.37 µM (inactive) | 2.49 µM (inactive) | 3.76 µM (inactive) | 0.873 µM (active) | 4.53 µM (inactive) | 2.07 µM (inactive) | 4.53 µM (inactive) | 0.309 µM (active) | 12.1 µM (inactive)
10 | CCOC(=O)c1nc2ccccc2nc1Nc1ccc(F)cc1 | 57.5 µM | 20.4 µM (inactive) | 23.6 µM (inactive) | > 100 µM (inactive) | 15.8 µM (inactive) | > 100 µM (inactive) | 13.7 µM (inactive) | 8.39 µM (inactive) | 40.6 µM (inactive) | > 59.3 µM (inactive) | 20.3 µM (inactive) | 42.2 µM (inactive) | 16.5 µM (inactive) | > 100 µM (inactive) | 50.9 µM (inactive) | > 72.4 µM (inactive) | 22.9 µM (inactive) | > 60.8 µM (inactive) | 11.5 µM (inactive) | 8.13 µM (inactive)
11 | CN1CCC(CNC(=O)CCCCCCCCC(=O)NCC2(c3ccccc3)CCN(C)CC2)(c2ccccc2)CC1 | > 100 µM | > 100 µM (inactive) | > 100 µM (inactive) | 38.8 µM (inactive) | > 100 µM (inactive) | > 100 µM (inactive) | > 100 µM (inactive) | 14.3 µM (inactive) | > 100 µM (inactive) | > 100 µM (inactive) | 60.1 µM (inactive) | > 100 µM (inactive) | 8.22 µM (inactive) | 84.7 µM (inactive) | > 100 µM (inactive) | > 100 µM (inactive) | 30.7 µM (inactive) | > 100 µM (inactive) | > 100 µM (inactive) | > 100 µM (inactive)
12 | Cc1ccc2nnc(NS(=O)(=O)c3cc(C)c(Cl)cc3S)n2n1 | > 100 µM | > 100 µM (inactive) | > 100 µM (inactive) | > 100 µM (inactive) | > 100 µM (inactive) | > 100 µM (inactive) | > 100 µM (inactive) | > 100 µM (inactive) | > 100 µM (inactive) | > 100 µM (inactive) | > 100 µM (inactive) | > 100 µM (inactive) | > 100 µM (inactive) | > 100 µM (inactive) | > 100 µM (inactive) | > 100 µM (inactive) | > 100 µM (inactive) | > 100 µM (inactive) | > 100 µM (inactive) | > 100 µM (inactive)
13 | Fc1cc(-c2cc(-c3ccccc3)no2)c(Cl)cc1Cl | 36 µM | 14.9 µM (inactive) | 23.6 µM (inactive) | > 56.8 µM (inactive) | 22.7 µM (inactive) | 13.9 µM (inactive) | 12.7 µM (inactive) | 19.4 µM (inactive) | > 32.4 µM (inactive) | 1.29 µM (inactive) | 13.8 µM (inactive) | > 32.3 µM (inactive) | 11.4 µM (inactive) | 10.7 µM (inactive) | 10.3 µM (inactive) | 21.6 µM (inactive) | 14 µM (inactive) | 4.25 µM (inactive) | > 26.8 µM (inactive) | 14.1 µM (inactive)
14 | O=C1/C(=C\c2cccc(Oc3ccccc3)c2)S(=O)(=O)C(c2ccccc2)N1c1cc(Cl)ccc1Cl (stereo not given) | 21 µM | 18.3 µM (inactive) | 28.2 µM (inactive) | 19.9 µM (inactive) | 19.4 µM (inactive) | 6.31 µM (inactive) | 15.6 µM (inactive) | 18.5 µM (inactive) | 16.9 µM (inactive) | 20.4 µM (inactive) | 4.6 µM (inactive) | 20.9 µM (inactive) | 27.8 µM (inactive) | 3.05 µM (inactive) | 22.2 µM (inactive) | 20.1 µM (inactive) | 20.3 µM (inactive) | 4.13 µM (inactive) | 5.06 µM (inactive) | 28.7 µM (inactive)

Reference: ChEMBL document CHEMBL1201862, “PubChem BioAssay data set” (2004)
